These results are taken from patent US20080312229A1, “Organic Compounds” (Novartis AG, priority 2005, published 2008).

This assay has as its target T1, human CRTh2 (Homo sapiens, UniProt Q9Y5Y4).
T1 construct: expressed in transfected cells; host or cells: CHO.K1 (Chinese Hamster Ovary) cells, membrane preparation
T1 sequence (Q9Y5Y4 1-395): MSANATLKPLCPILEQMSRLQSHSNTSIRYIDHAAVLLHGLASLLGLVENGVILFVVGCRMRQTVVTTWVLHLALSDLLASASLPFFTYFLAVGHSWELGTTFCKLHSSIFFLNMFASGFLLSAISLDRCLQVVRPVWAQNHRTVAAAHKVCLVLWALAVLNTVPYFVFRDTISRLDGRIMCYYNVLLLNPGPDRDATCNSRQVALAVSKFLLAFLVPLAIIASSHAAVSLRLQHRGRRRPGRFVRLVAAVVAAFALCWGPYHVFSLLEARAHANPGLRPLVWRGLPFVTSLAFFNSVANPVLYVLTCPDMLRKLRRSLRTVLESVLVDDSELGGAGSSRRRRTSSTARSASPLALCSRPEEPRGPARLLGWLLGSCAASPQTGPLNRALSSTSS
Description: CRTh2 [3H]-PGD2 binding assay (called SPA binding assay; filtration binding protocol described). Conditions: competition with [3H]-PGD2 (2.5 nM), CHO.K1-CRTh2 membranes. The protocol:
The binding of CRTh2 modulators is determined using membranes prepared from human CRTh2-expressing Chinese Hamster Ovary cells (CHO.K1-CRTh2). To produce cell membranes CHO.K1-CRTh2 cells cultured in roller bottles are harvested using cell dissociation buffer (Invitrogen). The cells are pelleted by centrifugation (167 g, 5 min). The cell pellet is incubated in hypotonic buffer (15 mM Tris-OH, 2 mM MgCl2, 0.3 mM EDTA, 1 mM EGTA, 1× Complete™ tablet) at 4° C. for 30 min. At 4° C. cells are homogenized using a Polytron® (IKA Ultra Turrax T25) for 5 bursts of 1 second. The homogenate is centrifuged (Beckman Optima TM TL Ultracentrifuge, 48000 g, 30 min at 4° C.). […]
The binding of [^3H]-PGD2 (157 Ci/mmol) to CHO.K1-CRTh2 membranes is determined in the absence (total binding) and presence (non-specific binding) of unlabelled PGD2 (1 μM). […]
The plates are incubated at room temperature on a shaker for 1 hour, and then harvested (Tomtec Harvester 9600) onto GF/C filter plates using wash buffer (10 mM HEPES-KOH, pH 7.4). […] Plates are then counted using a Packard Top Count instrument, Plates are then read on the Packard Topcount with the 3H Scintillation program (1 min per well).
Ki (dissociation constant for the inhibition) values for the CRTh2 modulators are reported. Ki values are determined using Sigma Plot™ software, using the Cheng-Prussoff equation. […]

Each structure is given as a SMILES string.

The term Ki denotes the equilibrium dissociation constant of an inhibitor or competing ligand from its target. Low readings indicate a stronger hold on the target, high ones a looser hold on the target. With `Cc1c(CC(=O)O)c2cccnc2n1CCc1ccccc1` [Example 1, (2-Methyl-1-phenethyl-1H-pyrrolo[2,3-b]pyridine-3-yl)-acetic acid], the inhibitory constant (Ki) stood at 716 nM.
